Values quoted from earlier work in US20030084473A1, “Non-transgenic herbicide resistant plants” (priority 2001, published 2003).

Target: wild-type EPSPS from E. coli (Escherichia coli, UniProt P0A6D3)
Settings: read-out: apparent Km for PEP

Sequence of wild-type EPSPS from E. coli (P0A6D3 whole entry): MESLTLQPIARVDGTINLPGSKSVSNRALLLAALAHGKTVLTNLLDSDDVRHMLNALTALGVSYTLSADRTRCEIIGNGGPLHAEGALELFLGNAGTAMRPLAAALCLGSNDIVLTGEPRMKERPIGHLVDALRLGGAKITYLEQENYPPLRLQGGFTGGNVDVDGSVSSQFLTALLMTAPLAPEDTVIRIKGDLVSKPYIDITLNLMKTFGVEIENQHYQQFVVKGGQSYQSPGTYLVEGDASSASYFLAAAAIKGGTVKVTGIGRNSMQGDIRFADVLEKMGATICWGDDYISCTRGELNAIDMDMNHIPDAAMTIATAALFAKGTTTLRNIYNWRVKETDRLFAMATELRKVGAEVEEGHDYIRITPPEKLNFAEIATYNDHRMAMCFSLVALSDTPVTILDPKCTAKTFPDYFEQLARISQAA

SMILES: C=C(OP(=O)(O)O)C(=O)O [PEP, phosphoenolpyruvic acid]
- Km: 10 µM
